Where “and” joins values, the source holds several entries; their conditions need not be identical. Equal entries are not always repeated. Where two headings read alike, the source gives them in different places.
Key:
[1] = biological target: AlinCSP3 (Adelphocoris lineolatus, UniProt E7BLG4); assay: biochemical; format: binding
Procedure: (§1) Fluorescence binding assays were performed on an F-380 fluorescence spectrophotometer (Tianjin, China) in a 1 cm light path quartz cuvette. The slit width used for excitation and emission was both 10 nm. The fluorescent probe N-phenyl-1-naphthylamine (1-NPN) was dissolved in methanol with a 1 mM stock solution. 1-NPN was excited at 337 nm and emission spectra were recorded between 390 nm and 530 nm.
(§2) All values reported were obtained from three independent measurements.
(§3) For determining binding constants, the intensity values corresponding to the maximum fluorescence emission were plotted against free ligand concentration. Bound ligand was evaluated from the values of fluorescence intensity assuming the protein was 100% active, with a stoichiometry of 1∶1 protein:ligand at saturation. The curves were linearized using Scatchard Plot.

[2] = biological target: AlinCSP1 (Adelphocoris lineolatus, UniProt J7EJ71); assay: biochemical; format: binding
Procedure: as §1, §2, §3

[3] = biological target: AlinCSP2 (Adelphocoris lineolatus, UniProt E7BLG5); assay: biochemical; format: binding
Procedure: as §1, §2, §3

[4] = test system: A. lineolatus antennae; assay: Electroantennogram (EAG) recordings; parameters: species or system Adelphocoris lineolatus; details: normalized to 2-octanone; for EAG response, male versus female antennae: Student t-test between sexes; for EAG response in words: male and female adult antennae, 10% (v/v) in paraffin oil, good ligand = more than 50% of 2-octanone response
Source text: Electrophysiological (EAG) recordings from each sex of adult individuals were made using Ag-AgCl glass pipette electrodes filled with 3 M KCl solution [69], [70]. The insects were anaesthetized by chilling, the antenna was amputated at the base and the tip of the antenna was cut off. The excised antenna was mounted between the electrodes by one teardrop of Spectra R360 electrically conductive gel (Syntech, Netherlands). The base of the antenna was connected to the reference electrode, while the terminal of tip-cut off antenna was connected to the recording electrode. An air stimulus controller CS-55 (Syntech, Netherlands) was used for air and chemical stimulants delivery with a constant flow of 10 ml/second flowed continuously over the antenna through the open end of the glass tube, which was positioned 1 cm from the antenna.
Twenty microliters of tested chemicals (100 µl/ml, 10% (v/v) dilution in paraffin oil except the hexadecanoic acid dissolved in hexane with 100 µg/ml) were applied to filter paper strips (1.5 cm×4 cm, Whatman No.1), and the solvent was allowed to evaporate for 30 sec before the paper strip was inserted into the glass Pasteur pipette cartridge (10 cm long, Fisher Scientific, Pittsburgh, Pennsylvania, USA). The chemicals were tested randomly, stimulus duration time was 0.5 second and an interval of at least 30 seconds was taken between stimulations for antennal recovery. Chemical odorants used for the EAG recordings are the same as used in the binding assays. […] The paraffin oil (Fluka, Buchs, Switzerland) was used to dissolve the chemicals and treated as control compound [71]. Each chemical was tested against six individual male and female antennae, and each antenna was tested three times. The signals were passed through a high impedance amplifier (CS-05 model, Syntech, the Netherlands), EAG responses were initially measured in millivolts (peak height of depolarization) and then converted to normalized responses by the Syntech EAG 2000 program (Syntech, the Netherlands). Response to the solvent control was subtracted from all normalized response and the normalized EAG responses were expressed as a percentage to the reference compound response. All results are presented as mean (±SE) normalized EAG responses. EAG responses between male and female individuals were compared with the Student t-test using SAS software.

[5] = u.d. = KD not calculated because IC50>50 µM, read-out: KD (µM) AlinCSP3, given as u.d.
[6] = u.d. = KD not calculated because IC50>50 µM, read-out: KD (µM) AlinCSP1, given as u.d.
[7] = u.d. = KD not calculated because IC50>50 µM, read-out: KD (µM) AlinCSP2, given as u.d.
[8] = 1-NPN and protein at 2 µM, 50 mM Tris-HCl pH 7.4, KD calculated from IC50, mean of three measurements, read-out: KD (µM) AlinCSP2
[9] = 1-NPN and protein at 2 µM, 50 mM Tris-HCl pH 7.4, KD calculated from IC50, mean of three measurements, read-out: KD (µM) AlinCSP3
[10] = 1-NPN and protein at 2 µM, 50 mM Tris-HCl pH 7.4, KD calculated from IC50, mean of three measurements, read-out: KD (µM) AlinCSP1
[11] = KD (µM) AlinCSP3, 1-NPN and protein at 2 µM, 50 mM Tris-HCl pH 7.4, KD calculated from IC50, mean of three measurements
[12] = KD (µM) AlinCSP1, 1-NPN and protein at 2 µM, 50 mM Tris-HCl pH 7.4, KD calculated from IC50, mean of three measurements
[13] = KD (µM) AlinCSP2, 1-NPN and protein at 2 µM, 50 mM Tris-HCl pH 7.4, KD calculated from IC50, mean of three measurements
[14] = KD (µM) AlinCSP3, given as u.d., u.d. = KD not calculated because IC50>50 µM
[15] = KD (µM) AlinCSP1, given as u.d., u.d. = KD not calculated because IC50>50 µM
[16] = KD (µM) AlinCSP2, given as u.d., u.d. = KD not calculated because IC50>50 µM

Chain of AlinCSP2 (E7BLG5 entry or part of it): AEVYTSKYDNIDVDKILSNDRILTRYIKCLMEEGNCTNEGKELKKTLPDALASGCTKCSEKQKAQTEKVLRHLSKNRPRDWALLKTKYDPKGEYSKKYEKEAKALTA
Chain of AlinCSP1 (J7EJ71 entry or part of it): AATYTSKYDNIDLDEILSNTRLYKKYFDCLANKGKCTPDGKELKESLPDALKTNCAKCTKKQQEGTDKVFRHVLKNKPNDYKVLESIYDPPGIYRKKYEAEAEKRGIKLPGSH
Chain of AlinCSP3 (E7BLG4 entry or part of it): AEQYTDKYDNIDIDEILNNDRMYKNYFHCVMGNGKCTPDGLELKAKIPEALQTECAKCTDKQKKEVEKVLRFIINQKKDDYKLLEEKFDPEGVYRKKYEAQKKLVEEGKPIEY

Molecule	Kd [1, 5]	Kd [2, 6]	Kd [3, 7]	Kd [3, 8]	Kd [1, 9]	Kd [2, 10]	further results
CCCCCCCCCC(C)O (stereo not drawn) [2-Undecanol]	> 50 µM	> 50 µM	> 50 µM				
CCCCCCCCCCCCCCO [Tetradecanol]	> 50 µM	> 50 µM		35.8 ± 3.01 µM			
CCCCCCC(=O)OCC [Ethyl heptanoate]				45.3 µM and 38.3 µM	38.3 µM and 35.3 µM	25.3 µM and 43.2 µM	
CCCCCCC(C)O (stereo not drawn) [2-Octanol]	> 50 µM	> 50 µM		39.5 ± 2.11 µM			
CCCCCCCCCOC(C)=O [Nonyl acetate]				29.2 ± 2.19 µM	46.5 ± 3.07 µM	23.6 ± 1.6 µM	
CCCCCCCCCC [decane]				46.4 ± 0.82 µM	47.2 ± 1.18 µM	44.6 ± 0.75 µM	EAG response, male versus female antennae [4]: significantly higher EAG responses from female antennae than from male antennae
CCC/C=C/C=O [(E)-2-Hexen-1-al]							EAG response in words [4]: elicited significant antennal responses from both male and female; Kd [1, 11]: 14.5 ± 2.59 µM; Kd [2, 12]: 11.3 ± 1.07 µM; Kd [3, 13]: 13.2 ± 2.05 µM
CCCCCCOC(=O)CCC [Hexyl butyrate]	> 50 µM		> 50 µM			46.8 ± 1.85 µM	
Cc1ccc(C=O)cc1C [3,4-Dimethyl-benzaldehe, 3,4-Dimethyl-benzaldehyde]	> 50 µM	> 50 µM	> 50 µM				EAG response, male versus female antennae [4]: significantly higher EAG responses from female antennae than from male antennae
CCCCCCOC(=O)CCCCC [Hexyl hexanoate]			> 50 µM		43.8 ± 1.98 µM	44.7 ± 2.38 µM	
COC(=O)c1ccccc1O [Methyl salicylate]							EAG response in words [4]: failed to elicit high EAG response; Kd [1, 11]: 11.8 ± 1.89 µM; Kd [2, 12]: 8.67 ± 1.92 µM; Kd [3, 13]: 13.3 ± 1.71 µM
C/C1=C\CC/C(C)=C/CC(C)(C)/C=C/C1 [α-Humulene]			> 50 µM		8.94 ± 2.97 µM	9.96 ± 0.89 µM	EAG response in words [4]: no notable EAG response; binding to AlinCSP2 in words [3]: failed to bind with AlinCSP2
CCCCCCC(C)=O [2-Octanone]		> 50 µM	> 50 µM		39.5 ± 1.91 µM		
C=CC(C)(O)CCC=C(C)CCC=C(C)C (mixture of isomers) [Nerolidol]				24.4 ± 1.36 µM	22.4 ± 1.33 µM	28.1 ± 1.26 µM	
O=Cc1ccccc1 [Benzaldehyde]							Kd [1, 11]: 24 ± 1.76 µM; Kd [2, 12]: 27.5 ± 1.96 µM; Kd [3, 13]: 28 ± 2.11 µM
CC(C)=CCCC(C)CCO (stereo not drawn) [(-)-β-Citronellol]		> 50 µM	> 50 µM		43.5 ± 0.99 µM		
COC(=O)Cc1ccccc1 [Methyl phenylacetate]							Kd [1, 11]: 22.2 ± 0.87 µM; Kd [2, 12]: 32.1 ± 1.85 µM; Kd [3, 13]: 30.6 ± 1.92 µM
CCCCCCCCCCCC=O [Dodecanal]	> 50 µM	> 50 µM	> 50 µM				
CCCCCCCCC=O [Nonanal]	> 50 µM		> 50 µM			43.6 ± 1.11 µM	
CCCCCCCC(C)=O [2-Nonanone]	> 50 µM	> 50 µM		42.4 ± 2.21 µM			
c1ccc2[nH]ccc2c1 [Indole]							Kd [1, 11]: 24.6 ± 2.16 µM; Kd [2, 12]: 27.1 ± 1.91 µM; Kd [3, 13]: 22.4 ± 2.01 µM
CC/C=C\CCO [(Z)-3-Hexen-1-ol]							EAG response in words [4]: elicited significant antennal responses from both male and female; Kd [1, 11]: 16.3 ± 1.98 µM; Kd [2, 12]: 12.5 ± 2.32 µM; Kd [3, 13]: 15.1 ± 1.79 µM
CC(C)=CCC/C(C)=C/C=O [Citral]							Kd [1, 14]: > 50 µM; Kd [2, 15]: > 50 µM; Kd [3, 16]: > 50 µM
(+)-α-Pinene				30.6 ± 0.71 µM	27.2 ± 1.02 µM	31.7 ± 0.98 µM	

Molecule	Kd [1, 5]	Kd [2, 6]	Kd [3, 7]	Kd [3, 8]	Kd [1, 9]	Kd [2, 10]	further results
C=CC(=C)CCC=C(C)C [Myrcene]				13 ± 1.72 µM	10.7 ± 1.64 µM	5.42 ± 0.93 µM	EAG response in words [4]: failed to elicit high EAG response
CCCCCCCC [Octane]				44.4 ± 1.36 µM	45.4 ± 1.54 µM	42.1 ± 1.42 µM	EAG response, male versus female antennae [4]: significantly higher EAG responses from male antennae than from female antennae
CCCCC=O [Valeraldehyde]				13.4 ± 2.41 µM	11.2 ± 1.52 µM	17.6 ± 2.54 µM	EAG response in words [4]: elicited significant antennal responses from both male and female
CCCCCCCCCCCCCC [Tetradecane]		> 50 µM	> 50 µM		46.2 ± 2.76 µM		
CCCCCCCCCCC [Undecane]	> 50 µM			39.6 ± 2.36 µM		38.4 ± 1.54 µM	EAG response, male versus female antennae [4]: significantly higher EAG responses from male antennae than from female antennae
CCCCCCCCCC=O [Decanal]		> 50 µM		45.9 ± 1.71 µM	42.3 ± 2.76 µM		
CC/C=C\CCOC(C)=O [(Z)-3-Hexenyl acetate]				15.8 ± 1.68 µM	12.2 ± 1.82 µM	7.37 ± 2.49 µM	EAG response, male versus female antennae [4]: significantly higher EAG responses from female antennae than from male antennae; EAG response in words [4]: only elicited a high EAG response in the female
C=C1CCC2CC1C2(C)C (stereo not drawn) [β-Pinene]							EAG response in words [4]: failed to elicit high EAG response; Kd [1, 11]: 12.4 ± 2.09 µM; Kd [2, 12]: 7.07 ± 1.41 µM; Kd [3, 13]: 11.1 ± 1.91 µM
CCCCC(CC)CO (stereo not drawn) [2-Ethyl-1-hexanol]	> 50 µM	> 50 µM	> 50 µM				
CCCCC/C=C\CCO [(Z)-3-Nonen-1-ol]				26.4 ± 1.87 µM	25.5 ± 1.67 µM	21.5 ± 1.17 µM	
CCCCC [Pentane]				39.5 ± 2.54 µM	35.6 ± 2.61 µM	42.2 ± 1.95 µM	
C=CC(C)(O)CCC=C(C)C (stereo not drawn) [Linalool]							Kd [1, 14]: > 50 µM; Kd [2, 15]: > 50 µM; Kd [3, 13]: 46.2 ± 2.35 µM
CCCCCC(C)=O [2-Heptanone]			> 50 µM		41.2 ± 2.56 µM	42.9 ± 2.89 µM	EAG response, male versus female antennae [4]: significantly higher EAG responses from female antennae than from male antennae
C=C(C)[C@H]1CC=C(C)CC1 [Limonene]	> 50 µM	> 50 µM	> 50 µM				
CC1(C)[C@@H]2CC[C@@]1(C)[C@H](O)C2 (racemic) [Isoborneol]							Kd [1, 11]: 28.6 ± 1.68 µM; Kd [2, 12]: 24.2 ± 1.42 µM; Kd [3, 13]: 21.1 ± 2.04 µM
CCCCOC(C)=O [Butyl acetate]							Kd [1, 11]: 34.5 ± 2.79 µM; Kd [2, 12]: 26.6 ± 1.87 µM; Kd [3, 13]: 41.2 ± 2.89 µM
C=C/C(C)=C\CC=C(C)C [(Z)−ocimene]				25.1 ± 0.93 µM	22.2 ± 1.01 µM	28.6 ± 1.71 µM	
Cc1cccc(C(=O)O)c1C [2,3-Dimethylbenzoic acid]	> 50 µM	> 50 µM	> 50 µM				
CCCCCCCCC [Nonane]	> 50 µM	> 50 µM	> 50 µM				
C=CC(=O)OCCCC [Butyl acrylate]							Kd [1, 11]: 40.2 ± 2.88 µM; Kd [2, 12]: 38.5 ± 1.69 µM; Kd [3, 13]: 28.1 ± 2.37 µM
CCCCCCCCCCCC [Dodecane]	> 50 µM	> 50 µM	> 50 µM				
CC1=CC=C(C(C)C)CC1 [α-Terpinene]							Kd [1, 11]: 45.5 ± 2.06 µM; Kd [2, 15]: > 50 µM; Kd [3, 16]: > 50 µM
CCCCOC(=O)CCC [Butyl butyrate]	> 50 µM	> 50 µM	> 50 µM				
CCOC(=O)Cc1ccccc1 [Ethyl phenylacetate]							Kd [1, 11]: 24.4 ± 1.32 µM; Kd [2, 12]: 27.3 ± 2.02 µM; Kd [3, 13]: 25.3 ± 1.98 µM

— article PMC3416781, “Functional Characterizations of Chemosensory Proteins of the Alfalfa Plant Bug Adelphocoris lineolatus Indicate Their Involvement in Host Recognition” (PLoS ONE, 2012)
